Assay results reported in the supplement of paper PMC11061612.

Assays:
Experiment in all cases: combination Emax (second highest fraction inhibited in the dose matrix, 72 h); higher = more inhibition; extreme values may be limits of the assay
[1] = test system: SCC-15 (Oral Cavity Carcinoma)
Outline: (§1)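 Cell lines grown in DMEM/F12 or RPMI with 10% FBS were plated in 1536-well plates and held 24 hours at 37°C, 5% CO2 before 72 hours of exposure to two-drug dose matrices, with DMSO typically at 0.2%. CellTiter-Glo 2.0 luminescence gave viability, which was converted to inhibition. Vehicle wells were set to 0 and blank wells to 1. Combination Emax is the second-highest inhibition in the matrix, and Bliss excess is the observed combination effect minus the expected EA + EB − EA·EB, where EA and EB are the single-agent effects.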

[2] = test system: SU8686 (Pancreatic Carcinoma)
Outline: as §1

[3] = test system: HOP-62 (Lung Adenocarcinoma)
Outline: as §1

[4] = test system: OVCAR-4 (Ovarian Carcinoma)
Outline: as §1

[5] = test system: PANC-04-03 (Pancreatic Carcinoma)
Outline: as §1

[6] = test system: BT-549 (Breast Carcinoma)
Outline: as §1

[7] = test system: KARPAS-299 (T-Cell Non-Hodgkin's Lymphoma)
Outline: as §1

D-263MG (Glioblastoma) = test system: D-263MG (Glioblastoma)
Outline: as §1

TGW (Neuroblastoma) = test system: TGW (Neuroblastoma)
Outline: as §1

[8] = test system: LU-65 (Non-Small Cell Lung Carcinoma)
Outline: as §1

[9] = test system: Hs-766T (Pancreatic Carcinoma)
Outline: as §1

[10] = test system: Ca9-22 (Head and Neck Carcinoma)
Outline: as §1

[11] = test system: HSC-4 (Oral Cavity Carcinoma)
Outline: as §1

[12] = test system: TE-1 (Esophageal Squamous Cell Carcinoma)
Outline: as §1

[13] = test system: MLMA (Other Blood Carcinomas)
Outline: as §1

[14] = test system: AMO-1 (Plasma Cell Myeloma)
Outline: as §1

YH-13 (Glioblastoma) = test system: YH-13 (Glioblastoma)
Outline: as §1

[15] = test system: HGC-27 (Gastric Carcinoma)
Outline: as §1

[16] = test system: NEC8 (Other Solid Carcinomas)
Outline: as §1

[17] = test system: NCI-H1915 (Non-Small Cell Lung Carcinoma)
Outline: as §1

SMILES | combination Emax [1] | combination Emax [2] | combination Emax [3] | combination Emax [4] | combination Emax [5] | combination Emax [6] | combination Emax [7] | combination Emax (D-263MG (Glioblastoma)) | combination Emax (TGW (Neuroblastoma)) | combination Emax [8] | combination Emax [9] | combination Emax [10] | combination Emax [11] | combination Emax [12] | combination Emax [13] | combination Emax [14] | combination Emax (YH-13 (Glioblastoma)) | combination Emax [15] | combination Emax [16] | combination Emax [17]
C=CCn1c(=O)c2cnc(Nc3ccc(N4CCN(C)CC4)cc3)nc2n1-c1cccc(C(C)(C)O)n1 [AZD1775] + C1CN(CCC1(C(=O)N[C@@H](CCO)C2=CC=C(C=C2)Cl)N)C3=NC=NC4=C3C=CN4 [Capivasertib] (first compound max 3 µM, partner max 3 µM) | 0.676 | 0.202 | 0.428 | 0.672 | 0.571 | 0.638 | 0.947 | 0.696 | 0.889 | 0.815 | 0.325 | 0.921 | 0.629 | 0.732 | 0.894 | 0.945 | 0.519 | 0.886 | 0.985 | 0.657
C=CCn1c(=O)c2cnc(Nc3ccc(N4CCN(C)CC4)cc3)nc2n1-c1cccc(C(C)(C)O)n1 [AZD1775] + C[C@@H]1COCCN1C2=NC(=NC(=C2)C3(CC3)[S@](=N)(=O)C)C4=C5C=CNC5=NC=C4 [AZD6738] (first compound max 1 µM, partner max 10 µM) | 0.517 | 0.384 | 0.668 | 0.843 | 0.63 | 0.808 | 0.965 | 0.908 | 0.97 | 0.884 | 0.643 | 0.957 | 0.662 | 0.654 | 0.935 | 0.922 | 0.69 | 0.966 | 0.932 | 0.658
C=CCn1c(=O)c2cnc(Nc3ccc(N4CCN(C)CC4)cc3)nc2n1-c1cccc(C(C)(C)O)n1 [AZD1775] + O=C(c1cc(Cc2n[nH]c(=O)c3ccccc23)ccc1F)N1CCN(C(=O)C2CC2)CC1 [Olaparib] (first compound max 1 µM, partner max 10 µM) | 0.284 | 0.182 | 0.274 | 0.472 | 0.495 | 0.551 | 0.93 | 0.447 | 0.821 | 0.609 | 0.473 | 0.88 | 0.461 | 0.552 | 0.882 | 0.728 | 0.428 | 0.799 | 0.284 | 0.668
CCN(CCO)CCCOc1ccc2c(Nc3cc(CC(=O)Nc4cccc(F)c4)[nH]n3)ncnc2c1 [AZD2811] + C=CCn1c(=O)c2cnc(Nc3ccc(N4CCN(C)CC4)cc3)nc2n1-c1cccc(C(C)(C)O)n1 [AZD1775] (first compound max 1 µM, partner max 1 µM) | 0.296 | 0.177 | 0.161 | 0.472 | 0.445 | 0.62 | 0.911 | 0.51 | 0.761 | 0.56 | 0.346 | 0.771 | 0.367 | 0.601 | 0.981 | 0.718 | 0.423 | 0.896 | 0.329 | 0.522
CCN(CCO)CCCOc1ccc2c(Nc3cc(CC(=O)Nc4cccc(F)c4)[nH]n3)ncnc2c1 [AZD2811] + C[C@@H]1COCCN1C2=NC(=NC(=C2)C3(CC3)[S@](=N)(=O)C)C4=C5C=CNC5=NC=C4 [AZD6738] (first compound max 1 µM, 7x7, partner max 10 µM) | 0.437 | 0.248 | 0.436 | 0.688 | 0.545 | 0.487 | 0.936 | 0.619 | 0.706 | 0.668 | 0.547 | 0.903 | 0.677 | 0.449 | 0.684 | 0.859 | 0.54 | 0.802 | 0.649 | 0.325
CCN(CCO)CCCOc1ccc2c(Nc3cc(CC(=O)Nc4cccc(F)c4)[nH]n3)ncnc2c1 [AZD2811] + O=C(c1cc(Cc2n[nH]c(=O)c3ccccc23)ccc1F)N1CCN(C(=O)C2CC2)CC1 [Olaparib] (first compound max 1 µM, 7x7, partner max 10 µM) | 0.281 | 0.145 | 0.155 | 0.227 | 0.227 | 0.244 | 0.423 | 0.418 | 0.532 | 0.265 | 0.186 | 0.195 | 0.245 | 0.105 | 0.223 | 0.354 | 0.474 | 0.915 | 0.13 | 0.312
